The source made the active and inactive calls. The calls are words filed in the database; no cut-off is given here.
What was measured:
U-937 [1] = experiment: Cell cycle arrest in human U937 cells assessed as accumulation at G1/S phase at 20 nM after 24 hrs; format: functional, cell-based
U-937 [2] = experiment: Cell cycle arrest in human U937 cells assessed as loss of accumulation at G2 phase at 20 nM after 24 hrs; format: functional, cell-based
U-937 [3] = experiment: Induction of cell differentiation in human U937 cells assessed as cytodifferentiation at 20 uM after 24 hrs by CD11c/PI method; format: functional, cell-based
[4] = biological target: Histone acetyltransferase KAT2A (Homo sapiens) (UniProt Q92830); experiment: Inhibition of human histone acetyltransferase GCN5 in U937 cell nuclear extracts assessed as remaining enzyme activity at 50 uM; format: cell-free; conditions: U-937
U-937 [5] = experiment: Inhibition of SAHA-induced histone H3 acetylation in human U937 cells at 100 uM after 4 hrs by Western blot analysis; format: functional, cell-based
U-937 [6] = experiment: Induction of apoptosis in human U937 cells at 20 uM by annexin V/propidium iodide double staining; format: functional, cell-based
[7] = biological target: Histone acetyltransferase KAT2B (Homo sapiens) (UniProt Q92831); experiment: Inhibition of human GST-fused histone acetyltransferase PCAF in U937 cell nuclear extracts assessed as remaining enzyme activity at 50 uM; format: cell-free; conditions: U-937
[8] = biological target: Histone acetyltransferase p300 (Homo sapiens) (UniProt Q09472); experiment: Inhibition of human immunoprecipitated histone acetyltransferase p300 in U937 cell nuclear extracts assessed as remaining enzyme activity at 50 uM; format: cell-free; conditions: U-937
U-937 [9] = experiment: Inhibition of SAHA-induced alpha tubulin acetylation in human U937 cells at 100 uM after 4 hrs by Western blot analysis; format: functional, cell-based
[10] = biological target: CREB-binding protein (Homo sapiens) (UniProt Q92793); experiment: Inhibition of human GST-fused histone acetyltransferase CBP in U937 cell nuclear extracts assessed as remaining enzyme activity at 50 uM; format: cell-free; conditions: U-937
U-937 [11] = experiment: Induction of apoptosis in human U937 cells at 100 uM by annexin V/propidium iodide double staining; format: functional, cell-based
U-937 [12] = experiment: Inhibition of human histone acetyltransferase in U937 cell nuclear extracts at 50 uM; format: cell-free

Sequence of Histone acetyltransferase KAT2B (Homo sapiens) (Q92831 whole entry, looked up, the tested form may be a part): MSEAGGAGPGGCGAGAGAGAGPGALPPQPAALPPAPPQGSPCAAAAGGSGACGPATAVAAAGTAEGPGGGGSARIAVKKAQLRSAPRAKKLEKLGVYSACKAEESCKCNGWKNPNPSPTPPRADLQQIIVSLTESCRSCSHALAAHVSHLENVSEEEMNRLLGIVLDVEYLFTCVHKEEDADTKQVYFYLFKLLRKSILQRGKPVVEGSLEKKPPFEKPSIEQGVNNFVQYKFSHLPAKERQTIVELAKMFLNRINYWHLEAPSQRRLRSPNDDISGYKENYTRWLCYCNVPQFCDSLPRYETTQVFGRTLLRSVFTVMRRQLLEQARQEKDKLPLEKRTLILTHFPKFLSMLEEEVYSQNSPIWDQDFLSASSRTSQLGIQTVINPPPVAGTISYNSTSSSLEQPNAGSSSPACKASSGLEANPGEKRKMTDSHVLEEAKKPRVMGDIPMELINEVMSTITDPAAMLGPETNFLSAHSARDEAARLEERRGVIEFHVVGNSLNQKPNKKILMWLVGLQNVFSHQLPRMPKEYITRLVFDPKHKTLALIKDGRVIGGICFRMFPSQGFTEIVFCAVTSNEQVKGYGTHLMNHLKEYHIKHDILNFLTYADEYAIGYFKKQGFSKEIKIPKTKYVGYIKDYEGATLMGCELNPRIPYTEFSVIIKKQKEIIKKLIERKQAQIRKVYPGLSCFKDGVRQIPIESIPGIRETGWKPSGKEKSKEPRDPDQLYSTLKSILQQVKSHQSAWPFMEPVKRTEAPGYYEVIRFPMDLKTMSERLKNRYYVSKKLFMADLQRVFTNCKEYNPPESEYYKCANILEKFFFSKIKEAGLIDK
Sequence of CREB-binding protein (Homo sapiens) (Q92793 2-2442 limits assumed): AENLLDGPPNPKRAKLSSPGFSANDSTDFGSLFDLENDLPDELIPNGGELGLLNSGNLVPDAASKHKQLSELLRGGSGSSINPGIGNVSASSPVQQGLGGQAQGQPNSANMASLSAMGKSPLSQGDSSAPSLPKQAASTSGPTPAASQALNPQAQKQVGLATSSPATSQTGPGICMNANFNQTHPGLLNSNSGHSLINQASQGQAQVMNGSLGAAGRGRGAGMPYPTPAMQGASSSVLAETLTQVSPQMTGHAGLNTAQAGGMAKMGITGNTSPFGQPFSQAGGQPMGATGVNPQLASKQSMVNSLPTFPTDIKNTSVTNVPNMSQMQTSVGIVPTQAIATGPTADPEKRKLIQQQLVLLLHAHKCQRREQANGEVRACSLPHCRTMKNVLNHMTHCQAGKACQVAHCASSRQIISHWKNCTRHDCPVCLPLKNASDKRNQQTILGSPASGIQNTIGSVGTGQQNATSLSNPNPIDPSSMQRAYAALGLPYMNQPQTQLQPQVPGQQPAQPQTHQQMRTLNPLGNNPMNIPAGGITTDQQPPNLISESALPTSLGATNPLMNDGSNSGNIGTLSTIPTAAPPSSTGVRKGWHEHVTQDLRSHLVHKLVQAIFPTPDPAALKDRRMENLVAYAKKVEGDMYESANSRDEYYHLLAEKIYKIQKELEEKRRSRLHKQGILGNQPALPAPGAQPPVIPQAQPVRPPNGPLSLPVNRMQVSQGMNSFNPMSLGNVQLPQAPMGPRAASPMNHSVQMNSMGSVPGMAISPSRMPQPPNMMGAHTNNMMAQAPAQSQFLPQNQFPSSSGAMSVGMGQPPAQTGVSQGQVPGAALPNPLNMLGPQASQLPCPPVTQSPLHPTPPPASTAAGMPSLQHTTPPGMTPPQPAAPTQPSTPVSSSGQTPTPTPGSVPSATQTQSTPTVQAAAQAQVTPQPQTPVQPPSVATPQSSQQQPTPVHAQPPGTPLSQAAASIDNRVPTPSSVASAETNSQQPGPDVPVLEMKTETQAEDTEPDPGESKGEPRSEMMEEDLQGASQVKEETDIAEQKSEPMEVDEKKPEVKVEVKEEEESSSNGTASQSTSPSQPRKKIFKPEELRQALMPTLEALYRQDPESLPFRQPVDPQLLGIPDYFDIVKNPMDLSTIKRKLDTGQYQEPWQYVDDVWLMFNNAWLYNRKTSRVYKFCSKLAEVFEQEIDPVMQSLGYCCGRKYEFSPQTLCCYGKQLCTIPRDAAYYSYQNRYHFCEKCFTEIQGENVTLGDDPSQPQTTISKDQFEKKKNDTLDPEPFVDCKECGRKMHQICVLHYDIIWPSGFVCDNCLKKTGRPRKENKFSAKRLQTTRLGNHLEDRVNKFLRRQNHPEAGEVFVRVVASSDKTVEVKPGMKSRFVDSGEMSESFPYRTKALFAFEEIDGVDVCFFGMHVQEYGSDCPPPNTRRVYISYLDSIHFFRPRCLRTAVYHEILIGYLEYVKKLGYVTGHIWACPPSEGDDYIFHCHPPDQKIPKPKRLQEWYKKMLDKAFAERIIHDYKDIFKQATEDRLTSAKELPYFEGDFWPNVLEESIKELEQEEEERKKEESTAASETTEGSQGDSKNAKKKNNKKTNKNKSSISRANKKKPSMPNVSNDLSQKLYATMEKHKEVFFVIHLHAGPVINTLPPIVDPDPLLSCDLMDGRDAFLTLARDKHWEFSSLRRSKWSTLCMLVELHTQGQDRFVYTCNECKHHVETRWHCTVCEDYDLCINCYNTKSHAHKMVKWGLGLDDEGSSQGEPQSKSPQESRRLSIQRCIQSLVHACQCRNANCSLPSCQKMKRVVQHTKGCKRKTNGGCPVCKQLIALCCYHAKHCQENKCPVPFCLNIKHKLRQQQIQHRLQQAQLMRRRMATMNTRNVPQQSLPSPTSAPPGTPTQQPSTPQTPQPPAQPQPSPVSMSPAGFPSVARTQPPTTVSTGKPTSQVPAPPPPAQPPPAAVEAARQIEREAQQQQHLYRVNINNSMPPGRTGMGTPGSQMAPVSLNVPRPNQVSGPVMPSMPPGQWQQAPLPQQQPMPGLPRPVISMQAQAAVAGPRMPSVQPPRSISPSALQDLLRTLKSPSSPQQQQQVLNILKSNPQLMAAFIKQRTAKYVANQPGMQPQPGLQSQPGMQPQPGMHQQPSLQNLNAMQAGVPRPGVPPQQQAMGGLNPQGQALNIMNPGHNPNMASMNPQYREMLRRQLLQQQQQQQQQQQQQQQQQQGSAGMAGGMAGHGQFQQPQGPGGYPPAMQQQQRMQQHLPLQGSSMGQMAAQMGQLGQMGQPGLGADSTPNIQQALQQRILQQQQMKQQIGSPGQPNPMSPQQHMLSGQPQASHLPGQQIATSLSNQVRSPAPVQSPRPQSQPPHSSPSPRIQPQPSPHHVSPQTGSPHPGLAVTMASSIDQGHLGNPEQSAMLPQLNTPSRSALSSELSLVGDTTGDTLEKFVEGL
Sequence of Histone acetyltransferase KAT2A (Homo sapiens) (Q92830 2-837 limits assumed): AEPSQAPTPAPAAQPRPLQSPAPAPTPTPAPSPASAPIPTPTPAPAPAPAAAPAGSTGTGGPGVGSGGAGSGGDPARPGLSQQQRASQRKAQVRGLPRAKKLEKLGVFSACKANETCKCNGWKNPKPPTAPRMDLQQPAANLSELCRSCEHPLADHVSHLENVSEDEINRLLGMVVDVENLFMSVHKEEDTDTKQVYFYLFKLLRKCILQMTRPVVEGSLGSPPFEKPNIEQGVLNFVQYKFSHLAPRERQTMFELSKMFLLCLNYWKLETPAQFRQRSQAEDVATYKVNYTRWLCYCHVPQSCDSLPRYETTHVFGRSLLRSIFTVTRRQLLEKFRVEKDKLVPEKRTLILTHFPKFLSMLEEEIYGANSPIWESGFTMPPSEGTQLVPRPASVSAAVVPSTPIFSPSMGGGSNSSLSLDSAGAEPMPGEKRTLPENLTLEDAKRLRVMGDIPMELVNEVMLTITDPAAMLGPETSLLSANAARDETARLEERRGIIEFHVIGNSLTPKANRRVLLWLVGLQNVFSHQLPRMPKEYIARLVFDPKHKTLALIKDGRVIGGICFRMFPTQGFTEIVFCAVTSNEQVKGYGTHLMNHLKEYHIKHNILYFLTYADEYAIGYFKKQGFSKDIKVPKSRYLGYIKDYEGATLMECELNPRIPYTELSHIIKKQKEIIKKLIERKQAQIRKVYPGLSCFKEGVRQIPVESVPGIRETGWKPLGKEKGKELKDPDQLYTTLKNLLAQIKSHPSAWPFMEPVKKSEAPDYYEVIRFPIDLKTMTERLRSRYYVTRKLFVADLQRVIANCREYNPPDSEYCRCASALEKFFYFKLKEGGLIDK

For `CCCCCCCCCCCCCCCc1nc2ccccc2c(O)c1C(=O)OCC`, the Activity (U-937 [1]) was “Active”, the Activity (U-937 [2]) was “Active” and the Activity (U-937 [3]) was “Active”. For the same compound, the Activity [4] was 96.8%, the Activity (U-937 [5]) was “Active” and the Activity (U-937 [6]) was “Active”. For the same compound, the Activity [7] was 82.4%, the Activity [8] was 39.8% and the Activity (U-937 [9]) was “Active”. For the same compound, the Activity [10] was 116% and the Activity (U-937 [11]) was “Active”.

Compound `C=C1C(=O)O[C@H](CCC)[C@H]1C(=O)O` has an Activity [4] of 54.5%, an Activity [7] of 76.8% and an Activity [8] of 58.6%. The Activity [10] was 45.9% and the inhibition (U-937 [12]) was 44%.

For `CCCCCc1nc2ccccc2c(O)c1C(=O)OCC`, the Activity (U-937 [1]) was “inactive”, the Activity (U-937 [2]) was “inactive” and the Activity (U-937 [3]) was “Active”. The Activity [4] was 102%, the Activity (U-937 [5]) was “Active” and the Activity [7] was 100%. For the same compound, the Activity [8] was 47.7%, the Activity (U-937 [9]) was “Active” and the Activity [10] was 91.2%.

For `CCOC(=O)c1c(C)nc2ccccc2c1O`, the Activity (U-937 [1]) was “inactive”, the Activity (U-937 [2]) was “inactive” and the Activity (U-937 [3]) was “Active”. For the same compound, the Activity [4] was 97.4%, the Activity (U-937 [5]) was “Active” and the Activity [7] was 81.7%. For the same compound, the Activity [8] was 16.4%, the Activity (U-937 [9]) was “inactive” and the Activity [10] was 13.4%.

In the case of `C=CC/C=C\C/C=C\CCCCCCCc1cccc(O)c1C(=O)O`, the Activity [4] is reported as 113%, the Activity [7] is reported as 52.1% and the Activity [8] is reported as 53.1%. The Activity [10] was 44% and the inhibition (U-937 [12]) was 15%.

With `CCCCCCCCCCc1nc2ccccc2c(O)c1C(=O)OCC` the Activity (U-937 [1]) was “Active”, the Activity (U-937 [2]) was “Active” and the Activity (U-937 [3]) was “Active”. For the same compound, the Activity [4] was 93.4%, the Activity (U-937 [5]) was “Active” and the Activity (U-937 [6]) was “Active”. The Activity [7] was 90.1%, the Activity [8] was 39.1% and the Activity (U-937 [9]) was “inactive”. The Activity [10] was 93.4% and the Activity (U-937 [11]) was “Active”.

In the case of `CCCCCCCCCCc1nc2ccccc2c(O)c1C(=O)O`, the Activity (U-937 [1]) is reported as “inactive”, the Activity (U-937 [2]) is reported as “inactive” and the Activity (U-937 [3]) is reported as “Active”. The Activity [4] was 95.4%, the Activity (U-937 [5]) was “Active” and the Activity [7] was 91.5%. The Activity [8] was 53.9%, the Activity (U-937 [9]) was “Active” and the Activity [10] was 13.2%.

`Cc1nc2ccccc2c(O)c1C(=O)O` was tested, and the Activity (U-937 [1]) was “inactive”, the Activity (U-937 [2]) was “inactive” and the Activity (U-937 [3]) was “Active”. For the same compound, the Activity [4] was 97.4%, the Activity (U-937 [5]) was “Active” and the Activity [7] was 104%. For the same compound, the Activity [8] was 11.4%, the Activity (U-937 [9]) was “Active” and the Activity [10] was 20.5%.

For `CCCCCCCCCCCCCCCc1nc2ccccc2c(O)c1C(=O)O`, the Activity (U-937 [1]) was “inactive”, the Activity (U-937 [2]) was “inactive” and the Activity (U-937 [3]) was “Active”. The Activity [4] was 103%, the Activity (U-937 [5]) was “Active” and the Activity [7] was 62.7%. The Activity [8] was 46.9%, the Activity (U-937 [9]) was “Active” and the Activity [10] was 14.4%.

`CCCCCc1nc2ccccc2c(O)c1C(=O)O` was tested, and the Activity (U-937 [1]) was “inactive”, the Activity (U-937 [2]) was “inactive” and the Activity (U-937 [3]) was “Active”. The Activity [4] was 98%, the Activity (U-937 [5]) was “Active” and the Activity [7] was 103%. The Activity [8] was 82%, the Activity (U-937 [9]) was “Active” and the Activity [10] was 19%. The inhibition (U-937 [12]) was 30%.

Reference: ChEMBL document CHEMBL1136851, “Identification of 4-hydroxyquinolines inhibitors of p300/CBP histone acetyltransferases” (Bioorg Med Chem Lett, 2009)
